Experimental data reported in ChEMBL document CHEMBL1201862, “PubChem BioAssay data set” (2004).
Activity calls are given as the source filed them.

Experiments:
[1] = HepG2 cell cytotoxicity, dose response, cytotoxicity control, ATP luminescence, cherry-pick, set 6 (AID 1053125); type: functional, cell-based
[2] = target: T1, Ubiquitin-conjugating enzyme E2 N (Homo sapiens, UniProt P61088); type: functional;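 note: Dose-response confirmation in a TR-FRET assay detecting UBC13-driven polyubiquitin chain formation, inhibition measured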
T1 sequence (P61088 whole entry): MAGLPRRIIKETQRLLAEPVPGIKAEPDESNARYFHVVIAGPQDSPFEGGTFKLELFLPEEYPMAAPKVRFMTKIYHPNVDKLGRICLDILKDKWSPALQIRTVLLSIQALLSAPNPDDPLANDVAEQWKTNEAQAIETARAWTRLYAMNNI

INS1 = assay: beta cell apoptosis inhibitors, cytokine rescue, dose response, luminescence, retest (AID 449756); type: functional, cell-based; conditions: Rattus norvegicus;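 note: cell death triggered by IL-1 beta plus TNF-alpha plus IFN-gamma mixture; protective hits raise ATP signal compared with cytokine alone wells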
[3] = target: RNA-editing ligase 1, mitochondrial (Trypanosoma brucei brucei, UniProt P86926); assay: TbREL1 ligase inhibitors, dose response, biochemical, fluorescence, Trypanosoma brucei (AID 1117295); type: functional
cells [4] = conditions: HEK293
[5] = Luminescence Cell-Based Dose Retest to Confirm Inhibitors of Cancer Stem Cells. [Related pubchem assays (depositor defined):AID2717, AID2721]; type: functional; conditions: Homo sapiens
cells [6] = conditions: A549
[7] = target: T2, High affinity choline transporter 1 (Homo sapiens, UniProt Q9GZV3); assay: CHT activators, dose response, cell-based, 10-point CRC, membrane potential dye (AID 602376); type: functional
T2 sequence (Q9GZV3 whole entry): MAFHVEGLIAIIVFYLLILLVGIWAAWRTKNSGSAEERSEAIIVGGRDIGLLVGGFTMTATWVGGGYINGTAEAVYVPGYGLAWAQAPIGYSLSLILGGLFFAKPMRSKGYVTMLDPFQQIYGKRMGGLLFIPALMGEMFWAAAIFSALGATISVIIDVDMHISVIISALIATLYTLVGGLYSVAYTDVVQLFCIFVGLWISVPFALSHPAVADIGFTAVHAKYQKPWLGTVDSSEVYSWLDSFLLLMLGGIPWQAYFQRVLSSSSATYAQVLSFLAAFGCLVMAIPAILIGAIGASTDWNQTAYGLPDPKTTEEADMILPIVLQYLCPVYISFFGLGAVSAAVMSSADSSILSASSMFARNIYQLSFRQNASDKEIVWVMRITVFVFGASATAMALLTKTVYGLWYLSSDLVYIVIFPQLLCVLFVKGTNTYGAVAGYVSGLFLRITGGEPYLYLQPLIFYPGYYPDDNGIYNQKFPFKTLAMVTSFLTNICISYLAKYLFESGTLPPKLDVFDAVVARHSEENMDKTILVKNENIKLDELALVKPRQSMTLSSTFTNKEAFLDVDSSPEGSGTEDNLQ

[8] = (§1) Counterscreen for antagonists of the orexin 1 receptor (OX1R; HCRTR1): Fluorescence-based cell-based high throughput dose response assay to identify antagonists of the parental CHO cell line. [Related pubchem assays (depositor defined):AID434989, AID435008, AID463079, AID485270, AID492963, AID492964, AID492965, AID493232, AID504699, AID504701]; type: functional
[9] = target: T3, Orexin/Hypocretin receptor type 1 (Homo sapiens, UniProt O43613); assay: Homogeneous Time Resolved Fluorescence (HTRF)-based cell-based high throughput dose response assay for antagonists of the orexin 1 receptor (OX1R; HCRTR1). [Related pubchem assays (depositor defined):AID434989, AID435008, AID463079, AID485270, AID492963, AID492964, AID492965, AID493232, AID504717, AID504718]; type: functional
T3 sequence (O43613 whole entry): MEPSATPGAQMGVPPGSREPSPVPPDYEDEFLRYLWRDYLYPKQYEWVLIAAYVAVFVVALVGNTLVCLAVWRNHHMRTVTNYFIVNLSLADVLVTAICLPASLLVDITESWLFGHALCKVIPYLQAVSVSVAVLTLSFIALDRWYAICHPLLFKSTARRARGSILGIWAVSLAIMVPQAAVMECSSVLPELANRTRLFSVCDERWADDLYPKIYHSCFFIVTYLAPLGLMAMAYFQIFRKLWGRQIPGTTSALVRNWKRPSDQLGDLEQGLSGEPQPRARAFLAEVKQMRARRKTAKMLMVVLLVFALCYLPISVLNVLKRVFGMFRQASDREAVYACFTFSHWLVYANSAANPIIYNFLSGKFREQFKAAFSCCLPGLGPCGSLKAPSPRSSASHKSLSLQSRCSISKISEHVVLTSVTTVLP

CHO-K1 = assay: as §1, with “Homogeneous time resolved fluorescence (HTRF)-based” for “Fluorescence-based”, “cell-based” for “cell-based high throughput”, “CHO-K1” for “CHO”; type: functional; conditions: Cricetulus griseus;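 note: potency for inhibition of ATP-stimulated IP1 production as antagonists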
Orexin receptor type 2 [10] = target: T4, Orexin receptor type 2 (Homo sapiens, UniProt O43614); assay: Counterscreen assay for antagonists of the orexin 1 receptor (OX1R; HCRTR1): Homogeneous Time Resolved Fluorescence (HTRF)-based cell-based dose response assay for antagonists of the orexin 2 receptor (OX2R; HCRTR2), run by assay provider.; type: functional
[11] = target: T3, Orexin/Hypocretin receptor type 1; assay: Fluorescence-based cell-based high throughput dose response assay for antagonists of the orexin 1 receptor (OX1R; HCRTR1). [Related pubchem assays (depositor defined):AID434989, AID435008, AID463079, AID485270, AID492963, AID492964, AID492965, AID493232, AID504717, AID504718]; type: functional
Orexin receptor type 2 [12] = target: T4, Orexin receptor type 2; assay: Counterscreen assay for antagonists of the orexin 1 receptor (OX1R; HCRTR1): Fluorescence-based cell-based dose response assay for antagonists of the orexin 2 receptor (OX2R; HCRTR2), run by assay provider.; type: functional
[13] = Counterscreen for inhibitors of Trypanosoma brucei methionyl tRNA synthetase (MetRS): Luminescence-based cell-based high throughput dose response assay to identify compounds that are cytotoxic to Jurkat human T lymphocyte cells.; type: functional
[14] = target: T5, Methionyl-tRNA synthetase, putative (Trypanosoma brucei brucei, UniProt Q38C91); type: functional, Trypanosoma brucei brucei strain 927/4 GUTat10.1
T5 sequence (Q38C91 whole entry): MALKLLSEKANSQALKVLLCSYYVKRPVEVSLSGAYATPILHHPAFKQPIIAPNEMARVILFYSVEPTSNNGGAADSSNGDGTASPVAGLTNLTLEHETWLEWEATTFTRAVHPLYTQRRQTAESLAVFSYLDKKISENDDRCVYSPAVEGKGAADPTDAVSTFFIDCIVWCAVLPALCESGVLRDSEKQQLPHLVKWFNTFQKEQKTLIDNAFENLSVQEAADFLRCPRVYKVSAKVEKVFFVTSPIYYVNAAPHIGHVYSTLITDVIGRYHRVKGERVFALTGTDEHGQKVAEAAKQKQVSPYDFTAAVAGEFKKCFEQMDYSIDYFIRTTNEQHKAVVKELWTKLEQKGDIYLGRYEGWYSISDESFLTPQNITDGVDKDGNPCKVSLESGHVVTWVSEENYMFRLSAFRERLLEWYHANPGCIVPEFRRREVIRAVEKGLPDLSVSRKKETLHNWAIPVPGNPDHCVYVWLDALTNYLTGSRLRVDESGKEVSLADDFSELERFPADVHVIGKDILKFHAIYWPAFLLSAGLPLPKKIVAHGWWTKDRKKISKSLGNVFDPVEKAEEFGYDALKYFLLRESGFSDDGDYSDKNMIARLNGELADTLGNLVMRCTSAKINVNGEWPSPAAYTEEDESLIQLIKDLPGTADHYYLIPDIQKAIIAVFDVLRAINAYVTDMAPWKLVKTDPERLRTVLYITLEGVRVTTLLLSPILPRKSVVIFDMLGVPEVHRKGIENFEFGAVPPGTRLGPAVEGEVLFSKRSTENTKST

[15] = target: T5, Methionyl-tRNA synthetase, putative; type: functional, Trypanosoma brucei brucei strain 927/4 GUTat10.1; remark: listed apart in the source
[16] = target: Protein disulfide-isomerase (Homo sapiens, UniProt P07237); assay: PDI inhibitors, insulin aggregation turbidity, dose response, biochemical, absorbance, cherry-picked samples (AID 602350); type: functional
[17] = viability loss in Mcl1-dependent HMC-1-8 cells, dose response, selectivity assay for A1 inhibitor project, cell-based, luminescence, dry powder (AID 504415); type: functional; conditions: Homo sapiens

T4 sequence (O43614 whole entry): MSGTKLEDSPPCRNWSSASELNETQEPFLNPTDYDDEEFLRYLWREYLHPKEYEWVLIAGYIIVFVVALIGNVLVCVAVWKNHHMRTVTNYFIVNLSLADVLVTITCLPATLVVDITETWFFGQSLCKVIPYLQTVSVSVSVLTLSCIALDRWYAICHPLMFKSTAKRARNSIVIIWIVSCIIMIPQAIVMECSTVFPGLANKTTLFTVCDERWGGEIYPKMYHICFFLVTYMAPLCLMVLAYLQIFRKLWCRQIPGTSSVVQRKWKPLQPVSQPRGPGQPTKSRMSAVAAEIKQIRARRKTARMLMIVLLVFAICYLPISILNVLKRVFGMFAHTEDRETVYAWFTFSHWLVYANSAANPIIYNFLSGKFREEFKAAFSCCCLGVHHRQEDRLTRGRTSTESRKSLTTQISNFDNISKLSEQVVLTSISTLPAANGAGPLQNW
RNA-editing ligase 1, mitochondrial, sequence (P86926 whole entry): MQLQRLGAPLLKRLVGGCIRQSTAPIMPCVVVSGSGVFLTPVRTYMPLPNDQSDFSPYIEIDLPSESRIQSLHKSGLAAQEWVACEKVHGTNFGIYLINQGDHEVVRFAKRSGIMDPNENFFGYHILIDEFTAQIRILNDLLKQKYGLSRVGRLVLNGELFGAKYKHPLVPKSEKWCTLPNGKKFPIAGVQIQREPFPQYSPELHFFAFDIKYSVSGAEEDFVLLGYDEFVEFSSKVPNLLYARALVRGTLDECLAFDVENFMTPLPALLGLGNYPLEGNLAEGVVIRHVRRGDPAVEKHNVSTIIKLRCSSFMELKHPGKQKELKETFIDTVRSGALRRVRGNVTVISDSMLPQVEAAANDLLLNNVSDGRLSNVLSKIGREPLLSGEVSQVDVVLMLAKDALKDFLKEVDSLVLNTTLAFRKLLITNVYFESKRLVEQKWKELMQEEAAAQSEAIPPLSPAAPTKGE
Protein disulfide-isomerase, sequence (P07237 whole entry): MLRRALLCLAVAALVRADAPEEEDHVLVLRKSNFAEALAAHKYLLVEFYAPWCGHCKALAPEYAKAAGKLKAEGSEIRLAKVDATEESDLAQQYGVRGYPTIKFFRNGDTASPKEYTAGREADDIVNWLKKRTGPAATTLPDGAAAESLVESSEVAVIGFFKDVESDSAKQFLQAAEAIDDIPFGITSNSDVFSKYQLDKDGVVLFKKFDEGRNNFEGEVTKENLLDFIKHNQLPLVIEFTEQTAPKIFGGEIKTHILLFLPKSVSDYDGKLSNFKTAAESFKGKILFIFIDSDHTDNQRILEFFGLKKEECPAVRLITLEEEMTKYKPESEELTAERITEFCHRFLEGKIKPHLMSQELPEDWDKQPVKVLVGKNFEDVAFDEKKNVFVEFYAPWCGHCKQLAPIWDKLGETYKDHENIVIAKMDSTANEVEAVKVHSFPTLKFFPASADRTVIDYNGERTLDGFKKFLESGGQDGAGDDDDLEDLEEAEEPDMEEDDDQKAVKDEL

COc1ccc(C[C@H]2CN3C(=NC[C@@H]3Cc3ccccc3)N2CCNC(=O)CCC2CCCCC2)cc1
AC50 [1]: 7.94 µM (active)
IC50 [2]: > 20 µM (inactive)
AC50 (INS1): 5.74 µM (active)
IC50 [3]: > 96.6 µM (inactive)
AC50 (cells [4]): 13.4 µM (active)
AC50 [5]: 11.2 µM (active)
AC50 (cells [6]): 8.94 µM (active)
EC50 [7]: 22 µM (active)

Cc1ccc(-c2cc3nc(-c4ccccc4)cc(N4CCC5(CC4)OCCO5)n3n2)cc1
IC50 [8]: > 49.7 µM (inactive)
IC50 [9]: 5.68 µM (active)
IC50 (CHO-K1): > 66.2 µM (inactive)
IC50 (Orexin receptor type 2 [10]): > 50 µM (inactive)
IC50 [11]: 17.4 µM (inactive)
IC50 (Orexin receptor type 2 [12]): 24.9 µM (inactive)

C[C@H]1CN([C@@H](C)CO)C(=O)Cc2cc(NC(=O)Nc3ccccc3)ccc2O[C@H]1CN(C)Cc1ccccc1
IC50 [13]: 27.8 µM (inactive)
IC50 [14]: 25.1 µM (inactive)
IC50 [15]: 21.4 µM (inactive)
AC50 [16]: 10.3 µM (active)

Cc1ccc(Sc2c([N+](=O)[O-])cnc3ccccc23)cc1
AC50 [17]: 22.9 µM (active)
